Laboratory results taken from ChEMBL document CHEMBL5725536, “Multiple kinase pathway inhibitors” (2017).

Key:
[1] = molecular target: Tyrosine-protein kinase Lyn (Homo sapiens, UniProt P07948); test: (§1) Kinase Assays: A concentration of a drug that reduces the observed activity of an enzyme by 50%. An IC50 is not a true affinity constant and the specific value determined can vary depending on the particular assay used. Nonetheless the rank order of IC50 for a set of compounds will typically be similar from one assay to another. (The true affinity constant for an inhibitor binding to an enzyme, Ki, can of course also be used for the same purposes as described herein for IC50). With respect to the kinases that are targeted by the compounds disclosed herein, kinase activity can be assayed, without limitation, as consumption of ATP or as incorporation of phosphate into a substrate. For example, the assay used in Example 76 assesses consumption of ATP based on luminescent detection of ADP. As an alternate example, the assay used in Example 78 assesses incorporation of phosphate based on the radiologic detection of 33P-labeled artificial substrates. Myriad other kinase assays are known in the art many of which are commercially available either as a kit or a service and one of skill in the art will recognize their particular usefulness for generating IC50 data.
[2] = molecular target: Proto-oncogene tyrosine-protein kinase Src (Homo sapiens, UniProt P12931); test: as §1
Proto-oncogene tyrosine-protein kinase Src, sequence (P12931 2-536 limits assumed): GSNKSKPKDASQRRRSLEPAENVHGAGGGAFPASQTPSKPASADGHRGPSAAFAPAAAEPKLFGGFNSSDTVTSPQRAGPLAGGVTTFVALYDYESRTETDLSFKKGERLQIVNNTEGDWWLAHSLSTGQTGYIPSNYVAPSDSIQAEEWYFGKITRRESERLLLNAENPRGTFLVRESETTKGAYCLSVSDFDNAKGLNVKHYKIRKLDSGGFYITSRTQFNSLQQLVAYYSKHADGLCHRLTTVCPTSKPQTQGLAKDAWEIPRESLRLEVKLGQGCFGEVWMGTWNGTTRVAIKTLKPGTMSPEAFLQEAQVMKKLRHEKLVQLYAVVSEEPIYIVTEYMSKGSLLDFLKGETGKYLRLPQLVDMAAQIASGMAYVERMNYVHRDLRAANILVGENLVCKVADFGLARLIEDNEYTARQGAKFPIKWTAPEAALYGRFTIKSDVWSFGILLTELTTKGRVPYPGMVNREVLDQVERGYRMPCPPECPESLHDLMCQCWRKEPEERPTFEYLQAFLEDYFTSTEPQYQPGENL

Tyrosine-protein kinase Lyn, sequence (P07948 whole entry): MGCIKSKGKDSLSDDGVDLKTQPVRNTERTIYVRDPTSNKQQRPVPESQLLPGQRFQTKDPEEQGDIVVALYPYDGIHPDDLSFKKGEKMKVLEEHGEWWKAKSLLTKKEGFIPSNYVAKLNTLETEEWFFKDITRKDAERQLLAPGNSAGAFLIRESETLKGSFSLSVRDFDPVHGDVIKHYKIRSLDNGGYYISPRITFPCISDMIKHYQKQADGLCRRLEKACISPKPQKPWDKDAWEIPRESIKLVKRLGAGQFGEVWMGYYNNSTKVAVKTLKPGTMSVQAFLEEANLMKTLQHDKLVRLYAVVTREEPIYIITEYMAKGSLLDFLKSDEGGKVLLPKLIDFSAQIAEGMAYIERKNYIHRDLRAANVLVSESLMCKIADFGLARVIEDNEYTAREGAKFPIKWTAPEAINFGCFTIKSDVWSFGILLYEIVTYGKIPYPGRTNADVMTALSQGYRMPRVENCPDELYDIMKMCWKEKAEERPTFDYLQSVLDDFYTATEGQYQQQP

`CC(C)n1c(=O)c(-c2c(F)cccc2F)cc2cnc(Nc3ccc(F)cn3)cc21` showed an IC50 [1] of over 5 µM and an IC50 [2] of over 5 µM.

Work on `CCN(CC)CCOc1ccc(Nc2cc3c(cn2)cc(C(C)C)c(=O)n3C)nc1` yielded an IC50 [1] of over 5 µM.
